The values below come from US12539337B2 (priority 2013, dated 2026).

For assay [1], the system named is sNMDARs. The assay can be described thus: Whole-cell patch-clamp recordings of spontaneous NMDAR-mediated sEPSCs in cerebrocortical neurons. It is filed as cell-based, rat. Particulars: free memantine at 10 μM.
Procedure: Whole-cell voltage-clamp recordings were performed from neurons after 14 days in vitro. […] All recordings were performed using an Axopatch 200B amplifier (Molecular Devices; Sunnyvale, CA, USA) at room temperature with a holding potential of −70 mV. Currents were digitally sampled at 10-20 kHz and filtered at 2-5 kHz.
Currents were acquired using a Digidata 1322 interface and pClamp 10.1 software. All recordings were made at room temperature at a holding potential of −70 mV. The extracellular solution contained the following: 137 mM NaCl, 1 mM NaHCO3, 0.34 mM Na2HPO4, 5.36 mM KCl, 0.44 mM KH2PO4, 3 mM CaCl2, 5 mM HEPES, 22.2 mM glucose, 0.01 mM glycine, and 0.003 mM strychnine, pH adjusted to 7.2. […]
The spontaneous NMDAR-mediated sEPSCs are usually presented as bursts, with each burst consisting of multiple EPSCs. […] Then, the values for charge transfer of each NMDAR-mediated sEPSC starting from the peak of the first NMDAR-mediated sEPSC and continuing to the baseline were determined, which took about 2 seconds in the majority of analyzed sEPSCs. […] Additionally, the frequency and amplitude of NMDAR-mediated sEPSCs were calculated for each experimental condition during about 100 seconds of recording time. The mean amplitude was calculated by averaging the amplitude of the maximal NMDA-mediated current in each burst. […]
The test system of assay [2] is NMDARs. Type of assay: cell-based, rat. Conditions: memantine alone; read-out: IC50 for blocking NMDARs.
Procedure: Primary cerebrocortical cultures were made from E16 rat pups and grown on 12-mm glass coverslips. Briefly, cortices were dissected from 1 to 2 days old rats and enzymatically treated (papain, 200 U/ml; 30 minutes, 37° C.). After mechanical dissociation in minimum essential medium (MEM; Gibco; Grand Island, NY, USA), the cells were plated into culture flasks and grown at 37° C. in a humidified 5% CO2/95% air atmosphere.
Whole-cell voltage-clamp recordings were performed from neurons after 14 days in vitro. The extracellular solution contained: 135 mM NaCl, 2.5 mM KCl, 2 mM CaCl2, 0-0.01 mM MgCl2, 1 mM NaHCO3, 0.34 mM Na2HPO4, 0.44 mM KH2PO4, 20 mM glucose, 10 mM Hepes, pH 7.4. Patch electrodes with a final tip resistance of 4-7 MΩ, were filled with a solution containing (in mM): 120 mM CsCl, 20 mM tetraethylammonium chloride (TEA-Cl), 10 mM Hepes, 2.25 mM EGTA, 1 mM CaCl2, 2 mM MgCl2, 0.001 mM and phalloidin, pH 7.4. pCLAMP 10 software (Molecular Devices; Sunnyvale, CA, USA) was used for data acquisition and analysis. All recordings were performed using an Axopatch 200B amplifier (Molecular Devices; Sunnyvale, CA, USA) at room temperature with a holding potential of −70 mV. […]
To evaluate their pharmacological profile, the effects of Au-Mem on NMDAR-mediated currents were evaluated in cerebrocortical neurons using patch-clamp whole-cell recordings. […]

Structures are written as SMILES. “Also recorded” adds a separate entry of the source.

In the case of `CC12CC3CC(C)(C1)CC(N)(C3)C2` [memantine, 3,5-dimethyladamantan-1-amine], in assay [1], the “effect on synaptic activity (sEPSCs)” value is given as “almost completely inhibit; also recorded: did block it”. Moreover, the IC50 (as a rule, the concentration that gives 50% inhibition) in assay [2] was roughly 1000 nM.
